Assay results published in US20140088056A1, “CARDIAC GLYCOSIDES ARE POTENT INHIBITORS OF INTERFERON-BETA GENE EXPRESSION” (priority 2010, published 2014).

Key:
Assay type in all cases: cell-based, human
[1] = test system: endogenous TNF target genes; assay: RT-PCR of TNF induced gene expression in 293T cells; conditions: 6 hrs
[2] = test system: cytoplasmic RNA polymerase III; assay: Re-transfection of RNA from dsDNA transfected, bufalin treated 293T cells
Protocol: Total RNA from these cells were extracted and re-transfected into fresh 293T cells (8 ug for 2 million cells) for 6 hrs, the induction of IFNβ and Cxcl10 genes from these samples were analyzed by RT-PCR.
Furthermore, RIG-I can also be the target in the dsDNA activation pathway. […] This was achieved through a critical sensor: RNA polymerase III, which transcribes 5′-ppp bearing “panhandle” RNA from the dsDNA template, these nascent RNAs then activated the IFNb expression through the RIG-1-MAVS pathway. See, for example, Ablasser, A. et al. RIG-I-dependent sensing of poly(dA:dT) through the induction of an RNA polymerase III-transcribed RNA intermediate. Nat Immunol 10, 1065-72 (2009) and Chiu, Y. H., Macmillan, J. B. & Chen, Z. J. RNA polymerase III detects cytosolic DNA and induces type I interferons through the RIG-I pathway. Cell 138, 576-91 (2009), content of both of which is herein incorporated by reference.

IFN signaling = assay: IFN induced gene expression in Hela cells; conditions: 1 μM
Text: Total RNA or protein were harvested for the expression analysis of specific genes by RT-PCR or Western blot.
Specifically, the inventors tested interferon (IFN), tumor necrosis factor (TNF), epidermal growth factor (EGF) signaling, and treatment with lipopolysacchoride (LPS).

[3] = test system: PRDIII/I element of the IFNβ promoter; conditions: 1 uM, compared with no drug treatment
Protocol: 293T cells were transfected with the IFNβ promoter driving a firefly luciferase reporter together a reference renilla luciferase reporter plasmid. […] Firefly luciferase activities were measured after another 24 hrs and normalized to that of renilla activities. […] Experiments were conducted same as in A, but PRDIV, PRDIII/I and PRDII driving luciferase reporter plasmids were used instead.

293T cells = assay: Flow cytometry analysis of apoptosis (Annexin V / 7-AAD); conditions: bufalin 1 μM 8 hours; staurosporine 4 μM 4 hours
Protocol: The cells were also exposed to 0.1% Triton X-100 for 1 hr before the viability assay as a control (FIG. 16E). Data represent mean values±s.d. (n=3). […] Cells were harvested and washed, then stained with Allophycocyanin (APC) conjugated Annexin V and 7-AAD for 15 minutes and subjected to flow cytometry analysis. The number in each graph is the percentile of Annexin V or 7-AAD positive populations. […] Total protein lysates were prepared and separated on SDS-PAGE for Western blot analysis of PARP1, cleaved PARP1, cleaved Caspase3, LC3B, ATP1a1, and beta-actin expression.
Treated cells and untreated control cells were harvested and washed with PBS, and stained with APC conjugated Annexin V and 7-AAD (both from BD Biosciences) in Annexin V binding buffer (10 mM HEPES, pH 7.4, 140 mM NaCl, 2.5 mM CaCl2) for 15 minutes at room temperature, and then subjected to flow cytometry analysis on a FACSCalibur (BD Biosciences).
Cells were harvested and washed, then stained with Allophycocyanin (APC) conjugated Annexin V and 7-AAD for 15 minutes and subjected to flow cytometry analysis. […] 11 for sturosporine.

[4] = test system: IFNβ and CXCL10 gene expression; assay: RT-PCR of dsRNA (poly I:C) and dsDNA (poly dA:dT) induced gene expression in 293T cells; conditions: 1 uM, 6 hrs

In the case of C[C@]12CC[C@H](O)C[C@H]1CC[C@@H]1[C@H]2CC[C@]2(C)[C@@H](c3ccc(=O)oc3)CC[C@]12O [Bufalin], the “expression of endogenous TNF target genes” value [1] is reported as “significantly inhibited”, the “activity of cytoplasmic RNA polymerase III” value [2] is reported as “inhibited” and the “IFN induction of Stat1 and ISG15 genes” value (IFN signaling) is reported as “no effect”. For the same compound, the “IFN induced expression of Cxcl10 and RIG-I genes” value (IFN signaling; IFN 1000 U/ml, 6 hours) was “weakly inhibited”, the “repression of viral induction of luciferase expression, PRDIII/I reporter” value [3] was greater than 86% and the “Percentile of Annexin V or 7-AAD positive populations” value (293T cells) was 1.95. For the same compound, the “IFNβ and CXCL10 gene expression in response to poly I:C and poly dA:dT” value [4] was “strongly inhibited”.
